According to ChEMBL document CHEMBL1275550, “In vitro activity of doripenem, a carbapenem for the treatment of challenging infections caused by gram-negative bacteria, against recent clinical isolates from the United States” (2008):
In brackets after ≈: the same amount, converted by molar mass.

How the values were obtained:
Proteus mirabilis [1] = assay: Antimicrobial activity against Non-ESBL Proteus mirabilis by broth microdilution method; assay type: functional
Acinetobacter [2] = assay: Antimicrobial activity against imipenem susceptible Acinetobacter assessed as resistant isolate by broth microdilution method; assay type: functional
Pseudomonas aeruginosa [3] = assay: Antimicrobial activity against imipenem non-susceptible Pseudomonas aeruginosa assessed as resistant isolate by broth microdilution method; assay type: functional
Serratia marcescens [4] = assay: Antimicrobial activity against Ceftazidime non-susceptible Serratia marcescens assessed as susceptible isolate by broth microdilution method; assay type: functional
Citrobacter [5] = assay: Antimicrobial activity against Citrobacter with nonderepressed AmpC beta-lactamsae by broth microdilution method; assay type: functional
Pseudomonas aeruginosa [6] = assay: Antimicrobial activity against Ceftazidime non-susceptible Pseudomonas aeruginosa assessed as resistant isolate by broth microdilution method; assay type: functional
Serratia marcescens [7] = assay: Antimicrobial activity against Ceftazidime susceptible Serratia marcescens assessed as intermediate isolate by broth microdilution method; assay type: functional
Citrobacter [8] = assay: Antimicrobial activity against Citrobacter with derepressed AmpC beta-lactamsae assessed as intermediate isolate by broth microdilution method; assay type: functional
Pseudomonas aeruginosa [9] = assay: Antimicrobial activity against Pseudomonas aeruginosa isolated from patient by broth microdilution method
Pseudomonas aeruginosa [10] = assay: Antimicrobial activity against Ceftazidime susceptible Pseudomonas aeruginosa assessed as intermediate isolate by broth microdilution method; assay type: functional
Citrobacter [11] = assay: Antimicrobial activity against Citrobacter with nonderepressed AmpC beta-lactamsae assessed as intermediate isolate by broth microdilution method; assay type: functional
Escherichia coli [12] = assay: Antimicrobial activity against Escherichia coli assessed as susceptible isolate by broth microdilution method; assay type: functional
Serratia marcescens [13] = assay: Antimicrobial activity against Serratia marcescens assessed as susceptible isolate by broth microdilution method; assay type: functional
Enterobacteriaceae [14] = assay: Antimicrobial activity against ceftazidime-susceptible Enterobacteriaceae assessed as susceptible isolate by broth microdilution method; assay type: functional
Acinetobacter [15] = assay: Antimicrobial activity against Acinetobacter assessed as resistant isolate by broth microdilution method; assay type: functional
Pseudomonas aeruginosa [16] = assay: Antimicrobial activity against imipenem susceptible Pseudomonas aeruginosa assessed as intermediate isolate by broth microdilution method; assay type: functional
Serratia marcescens [17] = assay: Antimicrobial activity against Ceftazidime non-susceptible Serratia marcescens by broth microdilution method; assay type: functional
Pseudomonas aeruginosa [18] = assay: Antimicrobial activity against imipenem susceptible Pseudomonas aeruginosa by broth microdilution method; assay type: functional
Serratia marcescens [19] = assay: Antimicrobial activity against Ceftazidime susceptible Serratia marcescens assessed as susceptible isolate by broth microdilution method; assay type: functional
Klebsiella pneumoniae [20] = assay: Antimicrobial activity against ESBL producing Klebsiella pneumoniae by broth microdilution method; assay type: functional
Proteus mirabilis [21] = assay: Antimicrobial activity against ESBL producing Proteus mirabilis assessed as susceptible isolate by broth microdilution method; assay type: functional
Streptococcus pneumoniae [22] = assay: Antimicrobial activity against penicillin-intermediate Streptococcus pneumoniae assessed as intermediate isolate by broth microdilution method; assay type: functional
Citrobacter [23] = assay: Antimicrobial activity against Citrobacter with derepressed AmpC beta-lactamsae by broth microdilution method; assay type: functional
Streptococcus pneumoniae [24] = assay: Antimicrobial activity against penicillin-resistant Streptococcus pneumoniae by broth microdilution method; assay type: functional
Klebsiella pneumoniae [25] = assay: Antimicrobial activity against Non-ESBL Klebsiella pneumoniae assessed as intermediate isolate by broth microdilution method; assay type: functional
Acinetobacter [26] = assay: Antimicrobial activity against imipenem susceptible Acinetobacter assessed as susceptible isolate by broth microdilution method; assay type: functional
Pseudomonas aeruginosa [27] = assay: Antimicrobial activity against Pseudomonas aeruginosa by broth microdilution method; assay type: functional
Pseudomonas aeruginosa [28] = assay: Antimicrobial activity against Ceftazidime susceptible Pseudomonas aeruginosa by broth microdilution method; assay type: functional
Klebsiella pneumoniae [29] = assay: Antimicrobial activity against Non-ESBL Klebsiella pneumoniae by broth microdilution method; assay type: functional
Escherichia coli [30] = assay: Antimicrobial activity against Non-ESBL Escherichia coli assessed as susceptible isolate by broth microdilution method; assay type: functional
Serratia marcescens [31] = assay: Antimicrobial activity against Serratia marcescens assessed as resistant isolate by broth microdilution method; assay type: functional
Escherichia coli [32] = assay: Antimicrobial activity against ESBL producing Escherichia coli assessed as susceptible isolate by broth microdilution method; assay type: functional
Escherichia coli [33] = assay: Antimicrobial activity against Escherichia coli assessed as intermediate isolate by broth microdilution method; assay type: functional
Acinetobacter [34] = assay: Antimicrobial activity against imipenem non-susceptible Acinetobacter assessed as susceptible isolate by broth microdilution method; assay type: functional
Escherichia coli [35] = assay: Antimicrobial activity against Non-ESBL Escherichia coli by broth microdilution method; assay type: functional
Enterobacteriaceae [36] = assay: Antimicrobial activity against Ceftazidime non-susceptible Enterobacteriaceae assessed as resistant isolate by broth microdilution method; assay type: functional
Proteus mirabilis [37] = assay: Antimicrobial activity against Proteus mirabilis assessed as susceptible isolate by broth microdilution method; assay type: functional
Klebsiella pneumoniae [38] = assay: Antimicrobial activity against Klebsiella pneumoniae assessed as susceptible isolate by broth microdilution method; assay type: functional
Pseudomonas aeruginosa [39] = assay: Antimicrobial activity against Pseudomonas aeruginosa assessed as intermediate isolate by broth microdilution method; assay type: functional
Pseudomonas aeruginosa [40] = assay: Antimicrobial activity against Pseudomonas aeruginosa assessed as susceptible isolate by broth microdilution method; assay type: functional
Acinetobacter [41] = assay: Antimicrobial activity against Acinetobacter assessed as susceptible isolate by broth microdilution method; assay type: functional
Pseudomonas aeruginosa [42] = assay: Antimicrobial activity against imipenem non-susceptible Pseudomonas aeruginosa assessed as intermediate isolate by broth microdilution method; assay type: functional
Acinetobacter [43] = assay: Antimicrobial activity against imipenem susceptible Acinetobacter assessed as intermediate isolate by broth microdilution method; assay type: functional
Enterobacter cloacae = assay: Antimicrobial activity against Enterobacter cloacae with nonderepressed AmpC beta-lactamsae by broth microdilution method; assay type: functional
Pseudomonas aeruginosa [44] = assay: Antimicrobial activity against Ceftazidime susceptible Pseudomonas aeruginosa assessed as resistant isolate by broth microdilution method; assay type: functional
Enterobacteriaceae [45] = assay: Antimicrobial activity against Ceftazidime non-susceptible Enterobacteriaceae by broth microdilution method; assay type: functional
Klebsiella pneumoniae [46] = assay: Antimicrobial activity against Non-ESBL Klebsiella pneumoniae assessed as susceptible isolate by broth microdilution method; assay type: functional
Escherichia coli [47] = assay: Antimicrobial activity against Escherichia coli by broth microdilution method; assay type: functional
Staphylococcus aureus = assay: Antimicrobial activity against methicillin-susceptible Staphylococcus aureus assessed as susceptible isolate by broth microdilution method; assay type: functional
Enterobacteriaceae [48] = assay: Antimicrobial activity against Ceftazidime non-susceptible Enterobacteriaceae assessed as intermediate isolate by broth microdilution method; assay type: functional
Serratia marcescens [49] = assay: Antimicrobial activity against Ceftazidime susceptible Serratia marcescens by broth microdilution method; assay type: functional
Serratia marcescens [50] = assay: Antimicrobial activity against Ceftazidime susceptible Serratia marcescens assessed as resistant isolate by broth microdilution method; assay type: functional

Work on `C[C@@H](O)[C@H]1C(=O)N2C(C(=O)O)=C(S[C@@H]3CN[C@H](C(=O)N(C)C)C3)[C@H](C)[C@H]12` [MEROPENEM] yielded an MIC50 (Proteus mirabilis [1]) of 0.12 µg/mL (≈ 0.313 µM), an MIC90 (Proteus mirabilis [1]) of 0.25 µg/mL (≈ 0.652 µM) and an Activity (Acinetobacter [2]) of 0.4%. For the same molecule, the Activity (Pseudomonas aeruginosa [3]) was 40.6%, the Activity (Serratia marcescens [4]) was 100% and the MIC50 (Citrobacter [5]) was 0.06 µg/mL (≈ 0.156 µM). The MIC90 (Citrobacter [5]) was 0.06 µg/mL (≈ 0.156 µM), the Activity (Pseudomonas aeruginosa [6]) was 35.5% and the Activity (Serratia marcescens [7]) was 0%. It also gave an Activity (Citrobacter [8]) of 0%, an Activity (Pseudomonas aeruginosa [9]) of 3.7% and an Activity (Pseudomonas aeruginosa [10]) of 4.7%. For the same molecule, the Activity (Citrobacter [11]) was 0%, the Activity (Escherichia coli [12]) was 100% and the Activity (Serratia marcescens [13]) was 99.2%. It also gave an Activity (Enterobacteriaceae [14]) of 99.6%, an Activity (Acinetobacter [15]) of 18% and an Activity (Pseudomonas aeruginosa [16]) of 0.7%. It also gave an MIC50 (Serratia marcescens [17]) of 0.25 µg/mL (≈ 0.652 µM), an MIC90 (Serratia marcescens [17]) of 0.25 µg/mL (≈ 0.652 µM) and an MIC50 (Pseudomonas aeruginosa [18]) of 0.5 µg/mL (≈ 1.3 µM). The MIC90 (Pseudomonas aeruginosa [18]) was 2 µg/mL (≈ 5.22 µM), the Activity (Serratia marcescens [19]) was 99.2% and the MIC50 (Klebsiella pneumoniae [20]) was 0.06 µg/mL (≈ 0.156 µM). The MIC90 (Klebsiella pneumoniae [20]) was 0.25 µg/mL (≈ 0.652 µM), the Activity (Proteus mirabilis [21]) was 100% and the Activity (Streptococcus pneumoniae [22]) was 83.9%. The MIC50 (Citrobacter [23]) was 0.12 µg/mL (≈ 0.313 µM), the MIC90 (Citrobacter [23]) was 0.25 µg/mL (≈ 0.652 µM) and the MIC50 (Streptococcus pneumoniae [24]) was 1 µg/mL (≈ 2.61 µM). For the same molecule, the MIC50 (Streptococcus pneumoniae [24]; Streptococcus pneumoniae, read-out: MIC50) was 1 µg/mL (≈ 2.61 µM), the Activity (Klebsiella pneumoniae [25]) was 0% and the Activity (Acinetobacter [26]) was 97.9%. For the same molecule, the MIC50 (Pseudomonas aeruginosa [27]) was 1 µg/mL (≈ 2.61 µM), the MIC90 (Pseudomonas aeruginosa [27]) was 16 µg/mL (≈ 41.7 µM) and the MIC50 (Pseudomonas aeruginosa [28]) was 1 µg/mL (≈ 2.61 µM). The MIC90 (Pseudomonas aeruginosa [28]) was 8 µg/mL (≈ 20.9 µM), the MIC50 (Klebsiella pneumoniae [29]) was 0.06 µg/mL (≈ 0.156 µM) and the MIC90 (Klebsiella pneumoniae [29]) was 0.06 µg/mL (≈ 0.156 µM). The Activity (Escherichia coli [30]) was 100%, the Activity (Serratia marcescens [31]) was 0.8% and the Activity (Escherichia coli [32]) was 100%. The Activity (Escherichia coli [33]) was 0%, the Activity (Acinetobacter [34]) was 0% and the MIC50 (Escherichia coli [35]) was 0.03 µg/mL (≈ 0.0782 µM). The MIC90 (Escherichia coli [35]) was 0.06 µg/mL (≈ 0.156 µM), the Activity (Enterobacteriaceae [36]) was 1.3% and the Activity (Proteus mirabilis [37]) was 100%. It also gave an Activity (Klebsiella pneumoniae [38]) of 99.7%, an Activity (Pseudomonas aeruginosa [39]) of 4.6% and an Activity (Pseudomonas aeruginosa [40]) of 85.3%. For the same molecule, the Activity (Acinetobacter [41]) was 80.6%, the Activity (Pseudomonas aeruginosa [42]) was 16.9% and the Activity (Acinetobacter [43]) was 1.7%. The MIC50 (Enterobacter cloacae) was 0.06 µg/mL (≈ 0.156 µM), the MIC90 (Enterobacter cloacae) was 0.12 µg/mL (≈ 0.313 µM) and the Activity (Pseudomonas aeruginosa [44]) was 6.5%. It also gave an MIC50 (Enterobacteriaceae [45]) of 0.12 µg/mL (≈ 0.313 µM), an MIC90 (Enterobacteriaceae [45]) of 0.5 µg/mL (≈ 1.3 µM) and an Activity (Klebsiella pneumoniae [46]) of 99.8%. The MIC50 (Escherichia coli [47]) was 0.03 µg/mL (≈ 0.0782 µM), the MIC90 (Escherichia coli [47]) was 0.06 µg/mL (≈ 0.156 µM) and the Activity (Staphylococcus aureus) was 100%. The Activity (Enterobacteriaceae [48]) was 0.7%, the MIC50 (Serratia marcescens [49]) was 0.12 µg/mL (≈ 0.313 µM) and the MIC90 (Serratia marcescens [49]) was 0.25 µg/mL (≈ 0.652 µM). It also gave an Activity (Serratia marcescens [50]) of 0.8%.
